IC50 data for ten compounds are collected here from US20250304567A1, “PYRROLIDIONE DERIVATIVES AS INHIBITORS OF NF KAPPA B INDUCING KINASE” (priority 2022, published 2025).

In general, IC50 refers to the concentration at which inhibition is half-maximal.

In assay [1] the target is Recombinant Human NF-kappaB-Inducing Kinase (NIK/MAP3K14) (Homo sapiens, UniProt Q99558). Kind of assay: Inhibition of auto-phosphorylation of recombinant human NIK/MAP3K14 activity (AlphaScreen). The format is biochemical. The conditions noted are these: 5 μM ATP, 1 nM NIK, average if tested more than once. In outline:
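AlphaScreen detection of phospho-Ser176/180 after 1 nM GST-NIK auto-phosphorylates for 2 h at 25 °C with 5 μM ATP (50 mM Tris pH 7.5, 0.7% DMSO). IC50s come from sigmoidal curves of % inhibition against log dose, using enzyme-free, ATP-free low controls and full-activity high controls.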

Assay [2] relates to p-IKKa levels in L363 (NIK translocated multiple myeloma) cells. Kind of assay: Effect of compounds on p-IKKa levels in L363 (NIK translocated multiple myeloma) cells (AlphaLISA SureFire Ultra p-IKKa Ser176/180). The format is cell-based, human. The conditions noted are these: Homo sapiens, L-363, p-IKKa levels in L363 cells; average if tested more than once; read-out: Assay 2 IC50. In outline: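 Phospho-IKKa (Ser176/180) in lysates quantified by AlphaLISA after 6 h compound exposure, 11-point threefold dilutions, 0.3% DMSO. L363 cells were pre-stimulated overnight and assayed with 250 ng/ml BAFF and 10 μM MG132; % inhibition fitted sigmoidally for IC50, duplicate curves.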
(In general: Alpha assays give light when donor and acceptor beads are brought close together.)

Chain of Recombinant Human NF-kappaB-Inducing Kinase (NIK/MAP3K14) (Q99558 whole entry): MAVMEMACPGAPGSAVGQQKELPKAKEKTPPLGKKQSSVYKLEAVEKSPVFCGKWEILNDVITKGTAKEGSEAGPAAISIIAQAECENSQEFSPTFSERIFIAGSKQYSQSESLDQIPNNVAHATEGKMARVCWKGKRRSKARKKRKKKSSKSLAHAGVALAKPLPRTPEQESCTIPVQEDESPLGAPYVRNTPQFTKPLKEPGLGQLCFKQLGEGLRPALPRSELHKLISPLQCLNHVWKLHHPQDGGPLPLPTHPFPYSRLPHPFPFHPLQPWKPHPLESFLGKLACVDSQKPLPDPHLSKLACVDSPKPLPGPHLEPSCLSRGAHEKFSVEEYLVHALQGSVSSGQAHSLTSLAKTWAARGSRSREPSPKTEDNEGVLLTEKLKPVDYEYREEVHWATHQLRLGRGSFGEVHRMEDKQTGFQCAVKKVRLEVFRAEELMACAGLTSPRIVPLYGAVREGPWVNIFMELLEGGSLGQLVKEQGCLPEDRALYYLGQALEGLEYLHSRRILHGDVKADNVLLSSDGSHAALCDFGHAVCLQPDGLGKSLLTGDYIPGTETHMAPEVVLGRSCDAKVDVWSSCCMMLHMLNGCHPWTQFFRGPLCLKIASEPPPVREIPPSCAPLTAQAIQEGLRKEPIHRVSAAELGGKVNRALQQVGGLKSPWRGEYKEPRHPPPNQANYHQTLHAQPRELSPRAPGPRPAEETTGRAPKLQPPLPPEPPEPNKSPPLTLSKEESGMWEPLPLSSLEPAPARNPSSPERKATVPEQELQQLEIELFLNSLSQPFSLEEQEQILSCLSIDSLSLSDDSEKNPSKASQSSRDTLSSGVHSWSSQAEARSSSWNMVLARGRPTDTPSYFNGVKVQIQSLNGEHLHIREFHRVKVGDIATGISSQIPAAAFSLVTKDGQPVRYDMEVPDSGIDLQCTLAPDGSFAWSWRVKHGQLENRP

In the case of `CC(C)n1nccc1Nc1nccc(-c2csc(-c3cccc([C@]4(O)CCN(C)C4=O)c3)n2)n1` [Example 66, (R)-3-hydroxy-3-(3-(4-(2-((1-isopropyl-1H-pyrazol-5-yl)amino)pyrimidin-4-yl)thiazol-2-yl)phenyl)-1-methylpyrrolidin-2-one], the IC50 was 100 to 500 nM in assay [1] and > 501 nM in assay [2].

Turning to `CCCn1ccc(Nc2nccc(-c3csc(-c4cccc([C@]5(O)CCN(C)C5=O)c4)n3)n2)n1` [Example 67, (R)-3-hydroxy-1-methyl-3-(3-(4-(2-((1-propyl-1H-pyrazol-3-yl)amino)pyrimidin-4-yl)thiazol-2-yl)phenyl)pyrrolidin-2-one], the results for the IC50 in assay [1] and in assay [2] were < 100 nM and 100 to 500 nM, respectively.

For `CN1CC[C@@](O)(c2cccc(-c3nc(-c4ccnc(Nc5cccnc5)n4)cs3)c2)C1=O` [Example 68, (R)-3-hydroxy-1-methyl-3-(3-(4-(2-(pyridin-3-ylamino)pyrimidin-4-yl)thiazol-2-yl)phenyl)pyrrolidin-2-one], the IC50 in assay [1] and in assay [2] was > 501 nM throughout.

For `CN1CC[C@@](O)(c2cccc(-c3nc(-c4ccnc(Nc5nn(C)c6ccccc56)n4)cs3)c2)C1=O` [Example 69, (R)-3-hydroxy-1-methyl-3-(3-(4-(2-((1-methyl-1H-indazol-3-yl)amino)pyrimidin-4-yl)thiazol-2-yl)phenyl)pyrrolidin-2-one], the IC50 in assay [1] is < 100 nM; in assay [2] it was > 501 nM.

For `CCc1cc(Nc2nccc(-c3csc(-c4cccc([C@]5(O)CCN(C)C5=O)c4)n3)n2)ncn1` [Example 70, (R)-3-(3-(4-(2-((6-ethylpyrimidin-4-yl)amino)pyrimidin-4-yl)thiazol-2-yl)phenyl)-3-hydroxy-1-methylpyrrolidin-2-one], the IC50 is < 100 nM in assay [1] and > 501 nM in assay [2].

Take `CN1CC[C@@](O)(c2cccc(-c3nc(-c4ccnc(Nc5cc6c(nn5)CCC6)n4)cs3)c2)C1=O` [Example 71, (R)-3-(3-(4-(2-((6,7-dihydro-5H-cyclopenta[c]pyridazin-3-yl)amino)pyrimidin-4-yl)thiazol-2-yl)phenyl)-3-hydroxy-1-methylpyrrolidin-2-one]: the IC50 is < 100 nM in assay [1] and > 501 nM in assay [2].

As for `CN1CC[C@@](O)(c2cccc(-c3nc(-c4ccnc(Nc5cnn(CC6CCCO6)c5)n4)cs3)c2)C1=O` (stereo partly drawn) [Example 72, (R)-3-hydroxy-1-methyl-3-(3-(4-(2-((1-(((R,S)-tetrahydrofuran-2-yl)methyl)-1H-pyrazol-4-yl)amino)pyrimidin-4-yl)thiazol-2-yl)phenyl)pyrrolidin-2-one], the IC50 is < 100 nM in assay [1] and 100 to 500 nM in assay [2].

Consider `CN1CC[C@@](O)(c2cccc(-c3nc(-c4ccnc(Nc5cnn(C6CCC6)c5)n4)cs3)c2)C1=O` [Example 73, (R)-3-(3-(4-(2-((1-cyclobutyl-1H-pyrazol-4-yl)amino)pyrimidin-4-yl)thiazol-2-yl)phenyl)-3-hydroxy-1-methylpyrrolidin-2-one], for which the values for the IC50 in assay [1] and in assay [2] were < 100 nM and 100 to 500 nM, respectively.

In the case of `COc1c(Nc2nccc(-c3csc(-c4cccc([C@]5(O)CCN(C)C5=O)c4)n3)n2)ccnc1C` [Example 74, (R)-3-hydroxy-3-(3-(4-(2-((3-methoxy-2-methylpyridin-4-yl)amino)pyrimidin-4-yl)thiazol-2-yl)phenyl)-1-methylpyrrolidin-2-one], the IC50 in assay [1] is 100 to 500 nM; in assay [2] it was > 501 nM.

For `CN1CC[C@@](O)(c2cccc(-c3nc(-c4ccnc(Nc5ccn(CC(F)(F)F)n5)n4)cs3)c2)C1=O` [Example 75, (R)-3-hydroxy-1-methyl-3-(3-(4-(2-((1-(2,2,2-trifluoroethyl)-1H-pyrazol-3-yl)amino)pyrimidin-4-yl)thiazol-2-yl)phenyl)pyrrolidin-2-one], the figures for the IC50 in assay [1] and in assay [2] were < 100 nM and 100 to 500 nM, respectively.
